Source: patent publication US6784201B2, “Benzothiepines having activity as inhibitors of ileal bile acid transport and taurocholate uptake” (G.D. Searle & Company, priority 1994, dated 2004)

Experiments:
[1] = Efficacy in cholesterol-fed hamsters: body, liver and fecal weight; format: in vivo, hamster; details: 0.2% Cpd. No. 25, mean (SEM)
H14 cells = assay: In vitro assay of uptake of [14C]-alanine; format: cell-based, hamster; details: Mesocricetus auratus; 10 μM
Method in brief: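 H14 cells (BHK expressing human IBAT) incubated 2 h at 37 °C with compound and labelled alanine, in the same format as the 3 μM [14C]-taurocholate uptake assay, in DMEM with 0.2% fatty acid-free BSA. After cold PBS washes, cell-associated radioactivity measured by scintillation counting.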

Serum Cholesterol [2] = assay: Determination of serum cholesterol, rat Alzet minipump model; format: in vivo; details: 20 MPL/DAY, mean (SEM)
Procedure: (§1) Determination of Serum Cholesterol (SER.CHOL, HDL-CHOL, TGI and VLDL+LDL)
(§2) Total serum cholesterol (SER.CHOL) was measured enzymatically using a commercial kit from Wako Fine Chemicals (Richmond, Va.); Cholesterol C11, Catalog No. 276-64909. HDL cholesterol (HDL-CHOL) was assayed using this same kit after precipitation of VLDL and LDL with Sigma Chemical Co. HDL Cholesterol reagent, Catalog No. 352-3 (dextran sulfate method). Total serum triglycerides (blanked) (TGI) were assayed enzymatically with Sigma Chemical Co. GPO-Trinder, Catalog No. 337-B. VLDL and LDL (VLDL+LDL) cholesterol concentrations were calculated as the difference between total and HDL cholesterol.

[3] = tested on: Hepatic HMG CoA-Reductase; assay: Hepatic HMG CoA-reductase activity, rat Alzet minipump model; format: in vivo; details: 20 MPL/DAY, mean (SEM)
Procedure: (§3) Measurement of Hepatic HMG CoA-Reductase Activity (HMG COA)
(§4) Hepatic microsomes were prepared by homogenizing liver samples in a phosphate/sucrose buffer, followed by centrifugal separation. The final pelleted material was resuspended in buffer and an aliquot was assayed for HMG CoA reductase activity by incubating for 60 minutes at 37° C. in the presence of ^14C-HMG-CoA (Dupont-NEN). The reaction was stopped by adding 6N HCl followed by centrifugation. An aliquot of the supernatant was separated, by thin-layer chromatography, and the spot corresponding to the enzyme product was scraped off the plate, extracted and radioactivity was determined by scintillation counting. (Reference: Akerlund, J. and Bjorkhem, I. (1990) J. Lipid Res. 31, 2159).

[4] = Rat Alzet minipump model: body, liver and fecal weight; format: in vivo; details: 20 MPL/DAY, mean (SEM)
Hepatic Cholesterol [5] = assay: Hepatic cholesterol concentration, rat Alzet minipump model; format: in vivo; details: 20 MPL/DAY, mean (SEM)
Procedure: (§5) Measurement of Hepatic Cholesterol Concentration (Hepatic CHOL)
(§6) Liver tissue was weighed and homogenized in chloroform:methanol (2:1). After homogenization and centrifugation the supernatant was separated and dried under nitrogen. The residue was dissolved in isopropanol and the cholesterol content was measured enzymatically, using a combination of cholesterol oxidase and peroxidase, as described by Allain, C. A., et al. (1974) Clin. Chem. 20, 470.

Serum Cholesterol [6] = assay: Determination of serum cholesterol (SER.CHOL, HDL-CHOL, TGI, VLDL+LDL), cholesterol-fed hamsters; format: in vivo, hamster; details: 0.2% Cpd. No. 25, mean (SEM)
Procedure: as §1, §2

Hepatic Cholesterol [7] = assay: Hepatic cholesterol concentration, cholesterol-fed hamsters; format: in vivo, hamster; details: 0.2% Cpd. No. 25, mean (SEM)
Procedure: as §5, §6

ACAT = assay: Acyl-CoA; cholesterol acyl transferase (ACAT), rat intestinal microsomes; format: biochemical; details: read-out: ACAT intestine IC(50)
Procedure: Acyl-CoA; Cholesterol Acyl Transferase (ACAT)
Hamster liver and rat intestinal microsomes were prepared from tissue as described previously (Reference: (1980) J. Biol. Chem. 255, 9098) and used as a source of ACAT enzyme. The assay consisted of a 2.0 ml incubation containing 24 μM Oleoyl-CoA (0.05 μCi) in a 50 mM sodium phosphate, 2 mM DTT ph 7.4 buffer containing 0.25% BSA and 200 μg of microsomal protein. The assay was initiated by the addition of oleoyl-CoA. The reaction went for 5 min at 37° C. and was terminated by the addition of 8.0 ml of chloroform/methanol (2:1). […] The chloroform phase was taken to dryness and then spotted on a silica gel 60 TLC plate and developed in hexane/ethyl ether (9:1). The amount of cholesterol ester formed was determined by measuring the amount of radioactivity incorporated into the cholesterol oleate spot on the TLC plate with a Packard instaimager.

[8] = tested on: Hepatic Cholesterol 7-α-Hydroxylase; assay: Hepatic cholesterol 7-α-hydroxylase activity, rat Alzet minipump model; format: in vivo; details: 20 MPL/DAY, mean (SEM)
Procedure: Measurement of Hepatic Cholesterol 7-α-Hydroxylase Activity (7a-OHase)
Hepatic microsomes were prepared by homogenizing liver samples in a phosphate/sucrose buffer, followed by centrifugal separation. The final pelleted material was resuspended in buffer and an aliquot was assayed for cholesterol 7-α-hydroxylase activity by incubating for 5 minutes at 37° C. in the presence of NADPH. Following extraction into petroleum ether, the organic solvent was evaporated and the residue was dissolved in acetonitrile/methanol. The enzymatic product was separated by injecting an aliquot of the extract onto a C18 reversed phase HPLC column and quantitating the eluted material using UV detection at 240 nm. (Reference: Horton, J. D., et al. (1994) J. Clin. Invest. 93, 2084).

[9] = tested on: Rabbit Ileal brush border membranes; assay: [3H]taurocholate uptake in rabbit brush border membrane vesicles (BBMV); format: biochemical; details: read-out: TC-uptake (BBMV) IC(50)
Procedure: [^3H]Taurocholate Uptake in Rabbit Brush Border Membrane Vesicles (BBMV)
Rabbit Ileal brush border membranes were prepared from frozen iheal mucosa by the calcium precipitation method describe by Malathi et al. (Reference: (1979) Biochimica Biophysica Acta, 554, 259). The method for measuring taurocholate was essentially as described by Kramer et al. (Reference: (1992) Biochimica Biophysica Acta, 1111, 93) except the assay volume was 200 μl instead of 100 μl.

[10] = tested on: Hepatic HMG CoA-Reductase; assay: Hepatic HMG CoA-reductase activity, cholesterol-fed hamsters; format: in vivo, hamster; details: 0.2% Cpd. No. 25, mean (SEM)
Procedure: as §3, §4

## CCCC[C@]1(CC)CS(=O)(=O)c2cc(OC)ccc2[C@@H](c2ccccc2)[C@H]1O [Example 25, (3α,4β,5β) 3-Butyl-3-ethyl-4-hydroxy-8-methoxy-5-phenyl-2,3,4,5-tetrahydrobenzothiepine-1,1-dioxide]
[1]
  LIVER WEIGHT (G): 5.8 (0.2) G
  WEIGHT (G) day 1: 117 (5) G
  WEIGHT (G) day 14: 132 (4) G
H14 cells
  inhibition at 10 µM: 4%
Serum Cholesterol [2]
  SER.CHOL (mg %): 84 (3) mg %
[3]
  HMG COA pm/mg/min: 318.0 (40.7) *A, B pm/mg/min
[4]
  LIVER WEIGHT (G): 14.6 (0.4) G
  WEIGHT (G) day 1: 307 (3) G
  WEIGHT (G) day 8: 310 (4) *A, B G
Hepatic Cholesterol [5]
  HEPATIC CHOL (mg/g): 2.0 (0.03) mg/g
Serum Cholesterol [6]
  HDL-CHOL (mg %): 76 (1) *A, B mg %
  SER.CHOL (mg %): 126 (2) mg %
  TGI (mg %): 175 (11) mg %
Serum Cholesterol [6]; difference total minus HDL cholesterol
  VLDL + LDL: 50 (3)
Hepatic Cholesterol [7]
  HEPATIC CHOL (mg/g): 1.9 (0.1) mg/g
ACAT
  IC50: 8 µM
[8]
  7a-OHase (pm/mg/min): 535.2 (35.7) *A, B pm/mg/min
[9]
  IC50: 0.8 µM
[10]
  HMG COA (pm/mg/min.): 312.9 (37.5) pm/mg/min.
